Experimental data as given in patent publication US20040072871A1, “Novel thiophene derivatives, their process of preparation and the pharmaceutical compositions which comprise them” (priority 2002, published 2004).

Key:
MMP-12 = MMP-12 (Homo sapiens, UniProt P39900); assay: In vitro inhibition of proteolysis of fluorogenic peptide substrate FP-1 by MMP-12; format: biochemical; details: substrate FP-1 10 μM, 20 minutes at ambient temperature, compounds tested 0.3 to 30 μM
Description: (§1) The inhibitory activity of the compounds of formula (I) with regard to metalloproteinase-12 is evaluated by testing the ability of the compounds of the invention to inhibit the proteolysis of a peptide substrate by MMP-12.
(§2) The inhibitory activity of a compound of formula (I) is expressed as IC50 value, which represents the concentration of inhibitor at which a degree of inhibition of the metalloproteinase of 50% is observed.
(§3) The reaction begins with the sequential addition of 41 μl of substrate FP-1 (final concentration of 10 μM) to a buffer solution of 50 mM of Tris-HCl and 10 mM of CaCl2, which comprises 5 mM of hydroxamic acid and 5 μl of the enzyme diluted in a 0.005% Brij-35 buffer solution. The microplates are incubated for 20 minutes at ambient temperature. The compounds of the invention are tested at concentrations varying from 0.3 to 30 μM.
(§4) The measurement of the amount of proteolysis of the peptide substrate is monitored by a measurement of absorbance at 405 nm using a microplate spectrophotometer, at ambient temperature. The IC50 values are calculated from curves in which the percentage of the catalytic activity relative to the control is represented on the […] and the concentration of inhibitor is represented on the Y axis.

MMP-13 = MMP-13 (Homo sapiens, UniProt P45452); assay: MMP-12 test adapted to MMP-13; format: biochemical
Description: as §1, §2, §3, §4
The test described above for the inhibition of MMP-12 is adapted and used to determine the ability of the compounds of formula (I) to inhibit the metalloproteinases MMP-1, MMP-2, MMP-3, MMP-7, MMP-9, MMP-13 and MMP-14. […] More specifically, the compounds of the present invention generally show a selectivity with a factor of greater than 50 with respect to the metalloproteinases mentioned above, except towards MMP-13. Thus, the compounds of the present invention also show an inhibitory activity with regard to MMP-13, making it possible to also use the pharmaceutical compositions comprising one or more compounds of the invention in the treatment of pathologies related to activity of MMP-13. Mention may be made, among these pathologies, by way of indication and without implied limitation, of cancer, osetoporosis, osteoarthritis, arthritis, rheumatoid arthritis, atherosclerosis, multiple sclerosis, cardiac insufficiency, asthma and chronic obstructive pulmonary disease.

[1] = Solubility remark on the isolated sodium salt; format: physicochemical; details: sodium salt form, remark in the synthesis
Description: 1.2 ml of water and 30.5 mg of lithium hydroxide (5 equivalents) are added to a solution of 118 mg of the compound obtained in the preceding Stage 1 in 1.5 ml of methanol. The reaction medium is stirred at 50° C. for 2 hours and then concentrated under reduced pressure. The residue obtained is taken up in ether and the insoluble material is removed. The ethereal solution, after several treatments with acid and base, results in the formation of a precipitate, which is isolated.

Chain of MMP-12 (P39900 106-470): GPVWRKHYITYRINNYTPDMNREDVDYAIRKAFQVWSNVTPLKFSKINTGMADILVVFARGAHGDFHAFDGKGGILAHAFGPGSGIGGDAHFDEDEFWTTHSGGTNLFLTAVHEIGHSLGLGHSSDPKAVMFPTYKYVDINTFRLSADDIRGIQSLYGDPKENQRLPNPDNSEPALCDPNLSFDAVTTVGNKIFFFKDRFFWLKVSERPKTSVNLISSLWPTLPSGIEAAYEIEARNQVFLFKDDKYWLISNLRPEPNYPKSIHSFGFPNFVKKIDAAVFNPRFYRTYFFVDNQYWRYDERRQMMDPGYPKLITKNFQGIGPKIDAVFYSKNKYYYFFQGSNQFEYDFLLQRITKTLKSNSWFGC

SMILES | IC50 (MMP-12) | IC50 (MMP-13) | solubility [1]
O=C(O)Cc1ccc(CNC(=O)c2cc(-c3ccc(-c4cncnc4)cc3)cs2)cc1 [Example 111, 2-{4-[({4-[4-(Pyrimidin-5-yl)phenyl]thien-2-yl}carboxamido)-methyl]phenyl}acetic acid] | 0.7 µM | 2.2 µM | 
CC(=O)c1ccc(-c2ccc(-c3csc(C(=O)NCc4ccc(CC(=O)O)cc4)c3)cc2)c(O)c1 [Example 117, 2-{4-[({4-[4-(4-Acetyl-2-hydroxyphenyl)phenyl]thien-2-yl}-carboxamido)methyl]phenyl}acetic acid] | 0.16 µM | 0.31 µM | 
O=C(O)CC[C@H]1CC[C@H](NC(=O)c2cc(-c3ccc(OC(F)(F)F)cc3)cs2)CC1 [Example 129, trans-3-(4-{[4-(4-Trifluoromethoxyphenyl)thien-2-yl]-carboxamido}cyclohexyl)propanoic acid] | 0.78 µM | 6.2 µM | 
O=C(O)CC1CCC(CNC(=O)c2cc(-c3ccc(OC(F)(F)F)cc3)cs2)CC1 (stereo not drawn) [Example 131, [4-({[4-(4-Trifluoromethoxyphenyl)thien-2-yl]carboxamido}methyl)-cyclohexyl]acetic acid] | 0.425 µM | 3.3 µM | 
O=C(NCc1ccc(O)c(C(=O)O)c1)c1cc(-c2ccc(OC(F)(F)F)cc2)cs1 [Example 133, 2-Hydroxy-({[4-(4-trifluoromethoxyphenyl)thien-2-yl]-carboxamido}methyl)benzoic acid] | 0.95 µM | 2.65 µM | 
CC(=O)c1ccc(-c2ccc(-c3csc(C(=O)NCc4ccc(C(=O)O)cn4)c3)cc2)cc1 [Example 135, 6({[4-(4′-Acetyl-4-biphenyl)thien-2-yl]carboxamido}methyl)-nicotinic acid] | 0.042 µM | 0.08 µM | 
CC(C)[C@H](NC(=O)c1cc(-c2ccc(OC(F)(F)F)cc2)cs1)C(=O)O [Example 150, (2S)-2-{[4-(4-Trifluoromethoxyphenyl)thien-2-yl]carboxamido}-3-methylbutanoic acid] | 0.78 µM | 10.1 µM | 

Continued, values first:

IC50 (MMP-12) | IC50 (MMP-13) | solubility [1] | SMILES
0.25 µM | 3.32 µM |  | O=C(O)Cc1ccc(CNC(=O)c2cc(-c3ccc(-c4ccccc4O)cc3)cs2)cc1 [Example 115]
0.66 µM | 6.1 µM |  | O=C(NCCN1CCOCC1)c1cc(-c2ccc(-c3ccccc3F)cc2)cs1 [Example 120, 4-[4-(2-Fluorophenyl)phenyl]-N-(2-morpholin-4-ylethyl)thiophene-2-carboxamide]
0.018 µM | 0.031 µM |  | CC(=O)c1ccc(-c2ccc(-c3csc(C(=O)NC[C@H]4CC[C@H](C(=O)O)CC4)c3)cc2)cc1 [Example 123, trans-4-[({4-[4-(4-Acetylphenyl)phenyl]thien-2-yl}carboxamido)-methyl]cyclohexanecarboxylic acid]
 |  | very low solubility | O=C(O)Cc1ccc(-c2ccc(-c3csc(C(=O)NCCN4CCOCC4)c3)cc2)cc1.[Na+] [Example 146, {4′-[5-(2-Morpholin-4-ylethylcarbamoyl)thiophen-3-yl]biphenyl-4-yl}-acetic acid, sodium salt]
